According to US20070027138A1 (priority 2000, published 2007):
Structures can show the parent of a compound that is named as a salt.

Target: acetylcholinesterase (AChE), human recombinant (Homo sapiens, UniProt P22303)
Sequence (P22303 32-614): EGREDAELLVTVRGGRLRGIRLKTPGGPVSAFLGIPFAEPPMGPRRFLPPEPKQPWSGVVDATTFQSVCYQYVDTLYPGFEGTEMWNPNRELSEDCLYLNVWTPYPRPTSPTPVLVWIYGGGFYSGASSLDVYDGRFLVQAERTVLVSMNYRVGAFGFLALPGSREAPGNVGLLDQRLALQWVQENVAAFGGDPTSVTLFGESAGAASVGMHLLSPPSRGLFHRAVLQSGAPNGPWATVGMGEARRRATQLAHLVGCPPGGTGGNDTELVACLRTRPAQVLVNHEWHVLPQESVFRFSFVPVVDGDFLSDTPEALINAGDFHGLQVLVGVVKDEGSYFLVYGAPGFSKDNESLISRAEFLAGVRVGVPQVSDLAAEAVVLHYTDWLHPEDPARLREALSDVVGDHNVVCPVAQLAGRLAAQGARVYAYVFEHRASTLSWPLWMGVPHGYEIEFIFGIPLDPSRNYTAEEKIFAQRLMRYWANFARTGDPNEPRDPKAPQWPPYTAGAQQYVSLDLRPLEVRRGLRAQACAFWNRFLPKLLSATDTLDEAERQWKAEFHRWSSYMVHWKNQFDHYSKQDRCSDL
Assay: biochemical
Format: biochemical
Conditions: not given
For `COc1ccc2c3c1OC1CC(O)C=CC31CCN(CCCCN1C(=O)c3ccccc3S1(=O)=O)C2` (centres unmarked) [SPH-1369], the IC50 was 0.022 µM.

Same assay, conditions: human recombinant enzyme (hr); pre-incubation of the enzyme with inhibitor (mE); read-out: IC50 (AChE, mE, hr)
With `COc1ccc2c3c1OC1CC(O)C=CC31CC[N+](C)(CC1CC1)C2` (single isomer, unassigned; (-)) [SPH-1146, (−) Cyclopropylmethylgalanthaminium bromide] the IC50 was 1.2 µM.
For `CCOC(=O)CCN1CCC23C=C[C@H](O)CC2Oc2c(OC)cc(Br)c(c23)C1` (stereo partly drawn) [SPH-1162, 3-((6R)-1-Bromo-6-hydroxy-3-methoxy-5,6,9,10-tetrahydro-4aH-[1]benzofuro[3a,3,2-ef][2]benzazepin-11(12H)-yl)propanoic acid ethyl ester], the IC50 was 200 µM.
In the case of `COc1cc(N(C)C)c2c3c1O[C@H]1CC(O)C=CC31CCN(C)C2` (some centres unmarked) [SPH-1163], the IC50 is reported as 200 µM.
Compound `C=CCN1CCC23C=CC(O)CC2Oc2c(OC)cc(C)c(c23)C1` (centres unmarked) [SPH-1199] has an IC50 of 200 µM.
`COc1cc(C)c2c3c1OC1CC(O)C=CC31CCN(C)C2` (centres unmarked) [SPH-1200] gave an IC50 of 200 µM.
For `COc1cc(C)c2c3c1OC1C[C@@H](O)C=CC31CCN(CCN1CCOCC1)C2` (some centres unmarked) [SPH-1202], the IC50 was 200 µM.
Work on `COc1cc(C)c2c3c1OC1CC(O)C=CC31CCN(C)C2` (centres unmarked) [SPH-1204] yielded an IC50 of 200 µM.
In the case of `COc1cc(Br)c2c3c1OC1C[C@@H](O)C=CC31CCN(C(=O)NC(C)C)C2` (stereo partly drawn) [SPH-1208, (6R)-1-Bromo-6-hydroxy-N^11-isopropyl-3-methoxy-5,6,9,10-tetrahydro-4aH-[1]benzofuro[3a,3,2-ef][2]benzazepine-11(12H)-carboxylic acid amide], the IC50 is reported as 200 µM.
`COc1ccc2c3c1OC1C[C@@H](O)C=CC31CCN(c1nc(Oc3ccccc3)nc(Oc3ccccc3)n1)C2` (stereo partly drawn) [SPH-1228, (6R)-11-(4,6-Diphenoxy-1,3,5-triazine-2-yl)-3-methoxy-5,6,9,10,11,12-hexahydro-4aH-[1]benzofuro[3a,3,2-ef][2]benzazepin-6-ol] showed an IC50 of 200 µM.
For `COc1ccc2c3c1OC1C[C@@H](O)C=CC31CCN(c1nc(OCCN)nc(OCCN)n1)C2` (stereo partly drawn) [SPH-1233, (6R)-11-(4,6-Bis-(2aminoethoxy)-1,3,5-triazine-2-yl)-3-methoxy-5,6,9,10,11,12-hexahydro-4aH-[1]benzofuro[3a,3,2-ef][2]benzazepin-6-ol], the IC50 was 200 µM.
In the case of `COc1ccc2c3c1OC1CC(O)C=CC31CN(C)CC2` (centres unmarked) [SPH-1263, (4aα,8aα)-4a,5,9,10,11-Hexahydro-3-methoxy-10-methyl-6H-benzofuro[3a,3,2-ef]-[3]benzazepin-6-ol], the IC50 is reported as 200 µM.
In the case of `COc1ccc2c3c1OC1C[C@@H](O)C=CC31CCN(C(=O)Nc1ccccc1C(F)(F)F)C2` (some centres unmarked) [SPH-1266], the IC50 is reported as 30 µM.
Work on `COc1ccc2c3c1OC1CC(O)C=CC31CCN(CCC(=O)O)C2` (centres unmarked) [SPH-1276] yielded an IC50 of 42 µM.
In the case of `COC(=O)C(=CN1CCC23C=CC(O)CC2Oc2c(OC)ccc(c23)C1)C(=O)OC` (centres unmarked) [SPH-1278], the IC50 is reported as 100 µM.
`COc1cc(C)c2c3c1OC1CC(O)C=CC31CCN(CCCN1CCCCC1)C2` (centres unmarked) [SPH-1298] showed an IC50 of 200 µM.
Compound `COc1ccc2c3c1OC1CC(O)C=CC31CCCC2N` (centres unmarked) [SPH-1309] has an IC50 of 200 µM.
Compound `COc1ccc2c3c1OC1CC(O)C=CC31CCN(CCN)C2` (centres unmarked) [SPH-1311] has an IC50 of 1.3 µM.
With `C=CCCC(=O)N1CCC23C=CC(O)CC2Oc2c(OC)ccc(c23)C1` (centres unmarked) [SPH-1326] the IC50 was 8.4 µM.
`COC(=O)C1=CON2CCC34C=CC(O)CC3Oc3c(OC)ccc(c34)C12` (centres unmarked) [SPH-1332] showed an IC50 of 200 µM.

Same assay, conditions: last section of the table, own sub-head (r307); read-out: IC50 AChE
In the case of `C=C(C)C[N+]1(C)CC[C@@]23C=C[C@H](O)C[C@@H]2Oc2c(OC)ccc(c23)C1` (some centres unmarked) [SPH-1193], the IC50 is reported as 1.5 µM.

Same assay, conditions: read-out: IC50 (AChE, mE, hr); human recombinant enzyme (hr); pre-incubation of the enzyme with inhibitor (mE)
For `COc1cc(Br)c2c3c1OC1C[C@@H](O)C=CC31CCN(CCC#N)C2` (stereo in doubt) [SPH-1210, 3-((6R)-1-Bromo-6-hydroxy-3-methoxy-5,6,9,10-tetrahydro-4aH-[I]benzofuro[3a,3,2-ef][2]benzazepine-11(12H)-yl)propanenitrile], the IC50 was 200 µM.

System: not given
Assay: not given
Conditions: not given
Work on `COc1ccc2c3c1O[C@H]1C[C@@H](O)C=C[C@@]31CCN(C)C2=O` yielded a melting point of 251 to 255 °C.
Work on `COc1ccc2c3c1O[C@H]1C[C@@H](O)C=C[C@@]31CCN1OC(OC(C)=O)C[C@@H]21` (some centres unmarked) yielded a melting point of 132 to 134 °C.
Work on `COc1ccc2c3c1O[C@H]1C[C@@H](O)C=C[C@@]31CCN1OC=C(C#N)[C@H]21` yielded a melting point of 137 to 139 °C.
In the case of `COc1ccc2c3c1O[C@H]1C[C@@H](O)C=C[C@@]31CCN(CCCCCN1C(=O)c3cccc4cccc(c34)C1=O)C2` (as salt: fumarate), the melting point is reported as 129 to 134 °C.
